Experimental data: ChEMBL document CHEMBL6103565, “Current strategies in design and synthesis of antifungals hybrid and chimeric diazine derivatives” (Bioorg Med Chem, 2025)
In brackets after ≈: the same amount, converted by molar mass. One block for each molecule: values may come before it.

Experiments:
[1] = test system: Candida albicans; test: Antifungal activity against Candida albicans; format: functional
[2] = test system: Geotrichum candidum; test: Antifungal activity against Geotrichum candidum; format: functional
[3] = test system: Candida albicans; test: Antifungal activity against Candida albicans assessed as zone of inhibition by serial dilution and disc diffusion method; format: functional
[4] = test system: Saccharomyces cerevisiae; test: Antimicrobial activity against Saccharomyces cerevisiae assessed as zone of inhibition; format: functional
[5] = test system: Aspergillus fumigatus; test: Antifungal activity against Aspergillus fumigatus assessed as zone of inhibition; format: functional
[6] = test system: Candida albicans; test: Antifungal activity against Candida albicans assessed as diameter of zone inhibition; format: functional
[7] = test system: Botrytis cinerea; test: Antifungal activity against Botrytis cinerea assessed as reduction in fungal growth at 50 ug/ml relative to control; format: functional
[8] = test system: Trichophyton rubrum; test: Antifungal activity against Trichophyton rubrum assessed as diameter of zone inhibition; format: functional
[9] = test system: Candida tropicalis; test: Antifungal activity against Candida tropicalis assessed as zone of inhibition by disc diffusion method; format: functional
[10] = test system: Aspergillus niger; test: Antifungal activity against Aspergillus niger assessed as zone of inhibition by disc diffusion method; format: functional
[11] = test system: Candida albicans; test: Antifungal activity against Candida albicans assessed as reduction in fungal growth incubated for 48 hrs by broth micro-dilution method; format: functional
[12] = test system: Candida albicans; test: Antifungal activity against Candida albicans NRRL-Y477 assessed as zone of inhibition by disc diffusion method; format: functional
[13] = test system: Candida albicans; test: Antifungal activity against Candida albicans MTCC 227 by disc diffusion method; format: functional, organism-based
[14] = test system: Aspergillus niger; test: Antifungal activity against Aspergillus niger MTCC 282 by disc diffusion method; format: functional, organism-based
[15] = test system: Candida albicans; test: Antimicrobial activity against Candida albicans ATCC 64124 assessed as reduction in microbial growth by CLSI protocol based micro-broth dilution method; format: functional
[16] = test system: Candida albicans; test: Antifungal activity against Candida albicans ATCC 10231; format: functional
[17] = test system: Pichia kudriavzevii; test: Antifungal activity against Candida krusei ATCC 6258; format: functional
[18] = test system: Candida parapsilosis; test: Antifungal activity against Candida parapsilosis ATCC 22019; format: functional; conditions: Lodderomyces parapsilosis
[19] = test system: Nakaseomyces glabratus; test: Antifungal activity against Candida glabrata ATCC 90030; format: functional
[20] = test system: Syncephalastrum racemosum; test: Antifungal activity against Syncephalastrum racemosum assessed as zone of inhibition; format: functional
[21] = test system: Botryosphaeria dothidea; test: Antifungal activity against Botryosphaeria dothidea assessed as reduction in fungal growth at 50 ug/ml relative to control; format: functional
[22] = test system: Cryptococcus neoformans; test: Antifungal activity against Cryptococcus neoformans assessed as reduction in fungal growth incubated for 24 hrs by broth microdilution method; format: functional
[23] = test system: Aspergillus flavus; test: Antimicrobial activity against Aspergillus flavus assessed as zone of inhibition; format: functional

MIC [1]: 8 µg/mL (≈ 16.3 µM)
MIC [2]: 6 µg/mL (≈ 12.2 µM)
SMILES: CCOC(=O)Cc1nc2c3[se]c4nc5c(nc4c3ncn2n1)c(C)nn5-c1ccccc1

MIC [2]: 4 µg/mL (≈ 11 µM)
SMILES: Cc1nn(-c2ccccc2)c2nc3sc4c(c3nc12)N=C(N)COC4=O

SMILES: COc1cccc(/C=N/Nc2ncnc3[nH]ccc23)c1OC
inhibition zone (IZ) [3]: 30 mm
inhibition zone (IZ) [4]: 24 mm

SMILES: CCc1nnc2c(Nc3ccc(C4=NNC(c5ccc(Cl)cc5)C4)cc3)nc3ccccc3n12 (stereo unspecified)
inhibition zone (IZ) [5]: 22 mm

SMILES: Brc1cc(Br)cc(/C=N/Nc2ncnc3[nH]ccc23)c1
inhibition zone (IZ) [3]: 21 mm
inhibition zone (IZ) [4]: 21 mm

SMILES: COC(=O)C1C(C(=O)OC)C(C(=O)c2ccccc2)N2N=C(c3ccc(Cl)cc3)C=CC12 (stereo unspecified)
inhibition zone (IZ) [6]: 25 mm

SMILES: O=C(Nc1ccc(F)c(Cl)c1)c1ccc(Oc2cc(C(F)(F)F)ncn2)cc1
inhibition at 50 µg/mL [7]: 91.7%

SMILES: Cc1c(-c2ccc(Br)cc2)nnc(O)c1Br
inhibition zone (IZ) [8]: 14 mm

SMILES: COc1ccc(/C=N/Nc2ncnc3[nH]ccc23)c(OC)c1
inhibition zone (IZ) [3]: 30 mm
inhibition zone (IZ) [4]: 24 mm

SMILES: COC1=CC(=O)C[C@@H](C)[C@]12Oc1c(Cl)c(OC)cc(OC)c1C2=O [GRISEOFULVIN]
MIC [1]: 500 µg/mL (≈ 1420 µM)
inhibition zone (IZ) [9]: 25 mm
inhibition zone (IZ) [10]: 22 mm

MIC [11]: 100 µg/mL (≈ 177 µM)
SMILES: Cc1ccc(S(=O)(=O)Nc2nc(/N=N/c3c(N)nn4c(-c5ccc(Cl)cc5)c(C#N)c(N)nc34)cs2)cc1

SMILES: CCOC(=O)c1c(C)nc2sc3c(SCC(=O)Nc4ccc(C)cc4)ncnc3c2c1-c1cccs1
inhibition zone (IZ) [12]: 25 mm
inhibition zone (IZ) [10]: 24 mm

EC50 [13]: 0.15 µg/mL (≈ 0.38 µM)
EC50 [14]: 0.15 µg/mL (≈ 0.38 µM)
SMILES: CC(=O)N1N=C(C2=C(C)NC(=O)NC2c2ccc(F)cc2)OC1c1ccccc1 (stereo unspecified)

MIC [15]: 4 µg/mL
SMILES: Cc1nc(-c2ccc(C(C)(C)C)cc2)sc1-c1ccnc(N[C@H]2CCCC[C@@H]2N)n1

SMILES: Oc1nnc(-c2ccccc2Cl)cc1Br
inhibition zone (IZ) [8]: 14 mm

MIC50 [16]: 0.78 µg/mL (≈ 2.66 µM)
MIC [17]: 0.78 µg/mL (≈ 2.66 µM)
MIC [18]: 0.78 µg/mL (≈ 2.66 µM)
MIC [19]: 0.78 µg/mL (≈ 2.66 µM)
SMILES: Cc1nc2ccccc2nc1NNC(=O)c1ccc(N)cc1

SMILES: CCc1nnc2c(Nc3ccc(C4=NN(C(N)=O)C(c5ccc(Cl)cc5)C4)cc3)nc3ccccc3n12 (stereo unspecified)
inhibition zone (IZ) [20]: 21 mm
inhibition zone (IZ) [5]: 22 mm

SMILES: O=C(Nc1ccc(F)cc1)c1ccc(Oc2cc(C(F)(F)F)ncn2)cc1
inhibition at 50 µg/mL [21]: 89.8%
inhibition at 50 µg/mL [7]: 90.3%

SMILES: CC1=NN(c2ccccc2)C2N=C3SCCN3C(c3ccc(O)cc3)C12 (stereo unspecified)
inhibition zone (IZ) [9]: 26 mm
inhibition zone (IZ) [10]: 24 mm

SMILES: CC1=NN(c2ccccc2)C2N=C3SCCN3C(c3ccc(Cl)cc3)C12 (stereo unspecified)
inhibition zone (IZ) [9]: 26 mm
inhibition zone (IZ) [10]: 24 mm

MIC [11]: 25 µg/mL (≈ 43.4 µM)
SMILES: Cc1ccc(S(=O)(=O)Nc2nc(/N=N/c3c(N)nn4c(-c5ccc([N+](=O)[O-])cc5)c(C#N)c(N)nc34)cs2)cc1

SMILES: COc1cccc(/C=N/Nc2ncnc3[nH]ccc23)c1
inhibition zone (IZ) [3]: 30 mm
inhibition zone (IZ) [4]: 24 mm

MIC [22]: 25 µg/mL (≈ 98.7 µM)
SMILES: NC(=S)NNC(=O)c1c[nH]c2ncnn2c1=O

EC50 [13]: 0.2 µg/mL (≈ 0.466 µM)
EC50 [14]: 0.2 µg/mL (≈ 0.466 µM)
SMILES: CC(=O)N1N=C(C2=C(C)NC(=O)NC2c2ccc(F)cc2)OC1c1ccc(Cl)cc1 (stereo unspecified)

SMILES: Nc1ncc(C2=NC3=Nc4ccccc4C3=N2)c(N)n1
inhibition zone (IZ) [23]: 18 mm

SMILES: CCc1nnc2c(Nc3ccc(C(=O)/C=C/c4ccc(OC)cc4)cc3)nc3ccccc3n12
inhibition zone (IZ) [5]: 21 mm

MIC [15]: 4 µg/mL
SMILES: Cc1nc(-c2ccc(C(C)(C)C)cc2)sc1-c1ccnc(N[C@H]2CC[C@H](N)CC2)n1

SMILES: Nc1nc(=S)[nH]c(N)c1C1=NC2=Nc3ccccc3C2=N1
inhibition zone (IZ) [23]: 14 mm

MIC50 [16]: 0.78 µg/mL (≈ 2.49 µM)
MIC [17]: 0.78 µg/mL (≈ 2.49 µM)
MIC [18]: 0.78 µg/mL (≈ 2.49 µM)
MIC [19]: 0.78 µg/mL (≈ 2.49 µM)
SMILES: Nc1ccc(C(=O)NNc2nc3ccccc3nc2Cl)cc1

SMILES: COc1ccc(C2C3C(C)=NN(c4ccccc4)C3N=C3SCCN32)cc1 (stereo unspecified)
inhibition zone (IZ) [9]: 26 mm
inhibition zone (IZ) [10]: 24 mm
